Results on 38 compounds are retold here after patent US6403575B1, “3-Pyridyl enantiomers and their use as analgesics” (Abbott Laboratories, priority 1996, dated 2002).

Usually Ki stands for a measure of affinity in units of concentration, obtained from inhibition or displacement. One may read the Cmax as the maximum level reached in the sampled fluid or tissue. The Tmax is the time at which the peak concentration occurs. The t½ is how long it takes for the measured level to halve.

The target of data set [1] is T1, neuronal nicotinic acetylcholine receptors (Rattus norvegicus, UniProt P09483+P12390).
T1 construct: crude synaptic membrane preparations from whole rat brain; from tissue; host or cells: whole rat brain, crude synaptic membranes
T1 sequence (P09483 31-630): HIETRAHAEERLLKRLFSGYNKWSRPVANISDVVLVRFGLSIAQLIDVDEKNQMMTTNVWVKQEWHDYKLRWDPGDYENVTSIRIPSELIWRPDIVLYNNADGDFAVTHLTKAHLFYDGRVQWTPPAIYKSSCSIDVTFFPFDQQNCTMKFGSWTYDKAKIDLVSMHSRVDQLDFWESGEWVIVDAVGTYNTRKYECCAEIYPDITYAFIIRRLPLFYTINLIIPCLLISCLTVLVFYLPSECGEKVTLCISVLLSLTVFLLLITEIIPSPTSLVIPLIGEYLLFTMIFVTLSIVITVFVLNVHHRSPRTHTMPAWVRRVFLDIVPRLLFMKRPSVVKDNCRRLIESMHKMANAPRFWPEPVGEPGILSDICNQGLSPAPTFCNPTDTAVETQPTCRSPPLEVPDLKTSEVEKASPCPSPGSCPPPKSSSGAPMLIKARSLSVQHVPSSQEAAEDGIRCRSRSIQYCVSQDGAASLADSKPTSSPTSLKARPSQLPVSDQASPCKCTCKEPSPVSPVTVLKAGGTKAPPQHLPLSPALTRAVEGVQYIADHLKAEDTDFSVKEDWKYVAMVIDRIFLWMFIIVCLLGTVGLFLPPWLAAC
T1 sequence (P12390 25-500): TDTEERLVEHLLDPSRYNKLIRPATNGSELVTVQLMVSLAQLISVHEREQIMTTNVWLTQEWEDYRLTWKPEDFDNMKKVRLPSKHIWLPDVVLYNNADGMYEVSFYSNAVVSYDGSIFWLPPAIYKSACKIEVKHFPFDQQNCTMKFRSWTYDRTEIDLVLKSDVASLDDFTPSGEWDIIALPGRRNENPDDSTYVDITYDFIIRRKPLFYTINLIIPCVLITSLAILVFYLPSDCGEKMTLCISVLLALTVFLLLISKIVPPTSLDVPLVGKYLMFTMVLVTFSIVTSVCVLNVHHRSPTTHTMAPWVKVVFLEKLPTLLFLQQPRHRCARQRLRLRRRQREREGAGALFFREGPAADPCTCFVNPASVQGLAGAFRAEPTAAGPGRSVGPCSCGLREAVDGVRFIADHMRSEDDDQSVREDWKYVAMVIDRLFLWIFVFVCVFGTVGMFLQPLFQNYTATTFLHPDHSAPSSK
Kind of data set: [3H]-cytisine binding to neuronal nicotinic acetylcholine receptors, whole rat brain membranes. As for the experimental part: Protocol for Determination of Nicotinic Acetylcholine Channel Receptor Binding Potencies of Ligands
Binding of [^3H]-cytisine ([^3H]-CYT) to neuronal nicotinic acetylcholine receptors was accomplished using crude synaptic membrane preparations from whole rat brain (Pabreza et al., Molecular Pharmacol., 1990, 39:9). Washed membranes were stored at −80° C. prior to use. Frozen aliquots were slowly thawed and resuspended in 20 volumes of buffer (containing: 120 mM NaCl, 5 mM KCl, 2 mM MgCl2, 2 mM CaCl2 and 50 mM Tris-Cl, pH 7.4 @4° C.). After centrifuging at 20,000×g for 15 minutes, the pellets were resuspended in 30 volumes of buffer. Homogenate (containing 125-150 μg protein) was added to triplicate tubes containing concentrations of test compound and [^3H]-CYT (1.25 nM) in a final volume of 500 μL. Samples were incubated for 60 minutes at 4° C., then rapidly filtered through Whatman GF/B filters presoaked in 0.5% polyethyleneimine using 3×4 mL of ice-cold buffer. The filters are counted in 4 mL of Ecolume® (ICN). Nonspecific binding was determined in the presence of 10 μM (−)-nicotine and values were expressed as a percentage of total binding.

For data set [2] the following is noted: dog, in vivo; for AUD0. / Cmax / Tmax / t½: po; for Cmax / Tmax / t½: 200 nmol/kg. As for the experimental part:
Beagle dogs were fasted overnight prior to dosing but were permitted free access to water. Each of the prodrugs was administered to a group of three animals at a dose of 200 nmol/kg. The formulation was adminstered by oral gavage. The prodrugs were prepared as 200 nmol/ml (1 ml/kg) solutions in normal saline. Blood samples from a jugular vein of each dog prior to dosing and 0.17, 0.33, 0.5, 0.75, 1, 1.5, 2, 3, 4, 6 and 8 hours after drug administration.

Another data set has as its system mice. Kind of data set: Mouse Hot Plate Paradigm. The data set is classed as in vivo. Conditions: 30 minutes prior to testing, 55° C.; for minimal effective dose: ip, 0.5 h, i.p., read-out: MED Hot plate model (μmol/kg, i.p.). More on the design: key to MED Hot plate model (μmol/kg, i.p.): NS = no significant effect observed relative to saline controls at the doses tested.

[3] abbreviates: [3H]-cytisine 1.25 nM, whole rat brain membranes, read-out: [3H] CYT Ki.

Structures can show the parent of a compound that is named as a salt. Where two headings read alike, the source gives them in different places.

In the case of `Brc1ccc(OC[C@H]2CCN2)cn1` [Example 128, 5-(2-(R)-azetidinylmethoxy)-2-bromo-pyridine tosylate], the inhibition constant (Ki) in data set [1] (setting [3]) is 0.17 nM.
As to `N#Cc1ccc(OC[C@@H]2CCN2)cn1` [Example 123, 6-Cyano-3-(2(S)-azetidinylmethoxy)pyridine hydrochloride], in data set [1] (setting [3]), the Ki worked out at 1.9 nM.
In turn, `Cc1cc(OC[C@H]2CCN2)cnc1Cl` [Example 127, 2-Chloro-3-methyl-5-(2-(R)--azetidinylmethoxy)pyridine citrate] had an inhibition constant Ki in data set [1] of 0.06 nM.
With `Cc1ccc(OC[C@@H]2CCN2)c(F)n1` [Example 117, 2-Fluoro-6-methyl-3-(2-(S)-azetidinylmethoxy)pyridine tosylate], the inhibitory constant (Ki) in data set [1] (setting [3]) was determined as 0.17 nM.
Consider `C=Cc1cc(OC[C@H]2CCN2)cnc1F` [Example 129, 5-((2R)-Azetidinylmethoxy)-2-fluoro-3-vinylpyridine tosylate], for which, in data set [1] (setting [3]), the inhibition constant Ki came out at 0.09 nM.
Take `O=C(c1ccc(F)cc1)N1CC[C@@H]1COc1ccc(F)nc1` [Example 4-FC6H4CO]: in data set [2], the “F* (%) efficiency of conversion” value is on record as 13.5%, the “AUD0.” value is 9.35 ng·h/mL, the “Cmax” value stood at 3.25 ng/mL and the “Tmax” value came to 48 min. For the same compound, in data set [2], the “t½” value is 1.6 h.
`Cc1ccc(OC[C@H]2CCN2)c(F)n1` [Example 118, 2-Fluoro-6-methyl-3-(2-(R)-azetidinylmethoxy)pyridine tosylate]: the Ki in data set [1] (setting [3]) is 4.8 nM.
`CCCc1cncc(OC[C@@H]2CCN2)c1` [Example 24, 5-Propyl-3-((2S)-azetidinylmethyloxy)lpyridine hydrochloride]: the inhibition constant (Ki) in data set [1] (setting [3]) is 0.05 nM. The minimal effective dose with mice came to 62 µmol/kg.
Take `CCc1cncc(OC[C@@H]2CCN2)c1` [Example 23, 5-Ethyl-3-((2S)-Azetidinylmethyloxy)lpyridine hydrochloride]: the Ki in data set [1] (setting [3]) was 0.11 nM. In the data set with mice, the “MED Hot plate model (μmol/kg, i.p.)” value is reported as “NS”.
As to `Cc1ccc(C(=O)N2CC[C@@H]2COc2ccc(F)nc2)cc1` [Example 4-MeC6H4CO], in data set [2], the “F* (%) efficiency of conversion” value came out at 43.1%, the “AUD0.” value was 29.85 ng·h/mL, the maximum concentration (Cmax) turned out to be 7.05 ng/mL and the “Tmax” value came out at 48 min. Moreover, the “t½” value in data set [2] was 2.4 h.
As for `Fc1ncc(OCC2CCN2)cc1Cl` (centres unmarked) [Example 33, 5-((29)-azetidinylmethoxy)-3-chloro-2-fluoropyridine tosylate], in data set [1] (setting [3]), the Ki worked out at 0.04 nM.
In the case of `CN1CC[C@H]1COc1ccc(C(F)F)nc1` [Example 113, 6-Difluoromethyl-3-((1-methyl-2-(S)-azetidinyl)methoxy)pyridine citrate], the inhibition constant (Ki) in data set [1] (setting [3]) was determined as 0.17 nM.
For `COC(=O)c1ccc(C(=O)N2CC[C@@H]2COc2ccc(F)nc2)cc1` [4-MeO2CC6H4CO], in data set [2], the “F* (%) efficiency of conversion” value came out at 61.2%, the “AUD0.” value came out at 42.37 ng·h/mL, the highest concentration (Cmax) was determined as 10.31 ng/mL and the time to peak (Tmax) worked out at 48 min. The “t½” value in data set [2] is 1.8 h.
As for `Cc1cc(OC[C@@H]2CCN2)cnc1F` [Example 32, 5-((2S)-azetidinylmethoxy)-3-methyl-2-fluoropyridine benzoate], the inhibition constant (Ki) in data set [1] (setting [3]) was determined as 0.1 nM. The “MED Hot plate model (μmol/kg, i.p.)” value with mice was “NS”.
For the compound `Cc1ncc(OC[C@@H]2CCN2)cc1Br` [Example 34, 5-Bromo-6-methyl-3-((2S)-azetidinylmethoxy)pyridine dihydrochloride], in data set [1] (setting [3]), the Ki is 0.02 nM. In addition, in the data set on mice, the minimal effective dose turned out to be 0.62 µmol/kg.
Regarding `c1cncc(OC[C@@H]2CCN2)c1` [Example 7, (S)-3-(2-Azetidinylmethyloxy)pyridine dihydrochloride], affinity in data set [1] was put at a Ki of 0.04 nM. For the same compound, in the data set on mice, the minimal effective dose is 6.2 µmol/kg.
Consider `Fc1ncc(OC[C@@H]2CCN2)cc1Br` [Example 31, 5-((2S)-azetidinylmethoxy)-3-bromo-2-fluoropyridine dibenzoic acid salt], for which, in data set [1] (setting [3]), the inhibitory constant (Ki) came to 0.03 nM. The minimal effective dose in the data set on mice stood at 6.2 µmol/kg.
`Brc1cncc(OC[C@@H]2CCN2)c1` [Example 12, 5-((2S)-Azetidinylmethyloxy)-3-bromopyridine dihydrochloride]: the Ki in data set [1] (setting [3]) was determined as 0.26 nM. The “MED Hot plate model (μmol/kg, i.p.)” value in the data set on mice was “NS”.
With `Clc1ncccc1OC[C@H]1CCN1` [Example 97, 2-Chloro-3-(2-(R)-azetidinylmethoxy)pyridine tosylate], the Ki in data set [1] (setting [3]) was 85 nM.
`Fc1ccc(OC[C@@H]2CCN2)c(F)n1` [Example 116, 2.6-Difluoro-3-(2-(S)-azetidinylmethoxy)pyridine tosylate]: the inhibition constant (Ki) in data set [1] (setting [3]) came out at 0.34 nM.
Regarding `Fc1ncc(OC[C@H]2CCN2)cc1Br` [Example 125, 5-bromo-6-fluoro-3-(2-(R)-azetidinylmethoxy)pyridine], affinity in data set [1] was put at a Ki of 0.04 nM.
Regarding `O=C(c1ccccc1)N1CC[C@@H]1COc1ccc(F)nc1` [PhCO], in data set [2], the “F* (%) efficiency of conversion” value is recorded as 27.3%, the “AUD0.” value amounted to 18.89 ng·h/mL, the “Cmax” value amounted to 6.31 ng/mL and the “Tmax” value was determined as 36 min. In addition, the “t½” value in data set [2] was found to be 1.8 h.
In the case of `CCc1cc(OC[C@@H]2CCN2)cnc1F` [Example 126, 5-ethyl-6-fluoro-3-(2-(S)-azetidinylmethoxy)pyridine], the Ki in data set [1] (setting [3]) came out at 0.07 nM.
Regarding `Cc1ccc(OC[C@H]2CCN2)cn1` [Example 115, 6-Methyl-3-(2-(R)-azetidinylmethoxy)pyridine], the inhibition constant (Ki) in data set [1] (setting [3]) turned out to be 0.07 nM.
`Cc1ccc(OC[C@@H]2CCN2)cn1` [Example 20, 5-((2S)-Azetidinylmethyloxy)-2-methylpyridine dihydrochloride]: the inhibition constant Ki in data set [1] (setting [3]) was 0.06 nM. The minimal effective dose in the data set with mice amounted to 0.62 µmol/kg.
As to `Clc1cncc(OC[C@@H]2CCN2)c1` [Example 21, 5-((2S)-Azetidinylmethyloxy)-3-chloropyridine dihydrochloride], the Ki in data set [1] (setting [3]) was 0.04 nM. The “MED Hot plate model (μmol/kg, i.p.)” value in the data set with mice is “NS”.
In the case of `Cc1cc(OC[C@@H]2CCN2)cnc1Cl` [Example 25, 2-Chloro-3-methyl-5-(2-(S)-azetidinylmethoxy)pyridine citrate], the inhibition constant Ki in data set [1] (setting [3]) came out at 0.05 nM. Also, the minimal effective dose in the data set on mice worked out at 0.062 µmol/kg.
Regarding `C=CCc1cncc(OC[C@@H]2CCN2)c1` [Example 130, 3-(2-(S)-azetidinylmethoxy)-5-(3-propenyl)pyridine hydrochloride], the inhibition constant (Ki) in data set [1] (setting [3]) was 0.04 nM.
With `CCCc1cc(OC[C@@H]2CCN2)cnc1Cl` [Example 28, 2-Chloro-3-propyl-5-((2S)-azetidinylmethoxy)pyridine hydrochloride], the inhibition constant Ki in data set [1] (setting [3]) turned out to be 0.03 nM. Moreover, the “MED Hot plate model (μmol/kg, i.p.)” value in the data set with mice was “NS”.
`C=Cc1cc(OC[C@@H]2CCN2)cnc1F` [Example 131, 5-(2-(S)-Azetidinylmethoxy)-3-ethenyl-2-fluoropyridine tosylate]: in data set [1] (setting [3]), the inhibition constant (Ki) amounted to 0.13 nM.
On to `COc1ccc(C(=O)N2CC[C@@H]2COc2ccc(F)nc2)cc1` [Example 4-MeOC6H4CO], for which, in data set [2], the “F* (%) efficiency of conversion” value stood at 37.7%, the “AUD0.” value amounted to 26.09 ng·h/mL, the “Cmax” value turned out to be 7.43 ng/mL and the “Tmax” value is 48 min. The “t½” value in data set [2] came out at 2.0 h.
For `O=C(c1ccc(Cl)cc1)N1CC[C@@H]1COc1ccc(F)nc1` [Example 4-ClC6H4CO], in data set [2], the “F* (%) efficiency of conversion” value is reported as 26.9%, the “AUD0.” value was 18.61 ng·h/mL, the “Cmax” value was 4.54 ng/mL and the time of peak concentration (Tmax) worked out at 48 min. Besides, the “t½” value in data set [2] was 2.5 h.
Turning to `Clc1ncccc1OC[C@@H]1CCN1` [Example 121, 2-Chloro-3-(2-(S)-azetidinylmethoxy)pyridine hydrochloride], in data set [1] (setting [3]), the Ki is 2.3 nM.
Turning to `Clc1cncc(OC[C@H]2CCN2)c1` [Example 114, 3-(2-(R)-Azetidinylmethoxy)-5-chloropyridine tosylate], the inhibition constant (Ki) in data set [1] (setting [3]) was determined as 0.12 nM.
As to `CCOc1cncc(OC[C@@H]2CCN2)c1` [Example 120, 5-Ethoxy-3-(2-(S)-azetidinylmethoxy)pyridine tosylate], the Ki in data set [1] (setting [3]) was found to be 0.04 nM.
As for `Cc1ncc(OC[C@H]2CCN2)cc1Br` [Example 124, 3-(2-(R)-azetidinylmethoxy)-5-bromo-6-methylpyridine tosylate], the inhibition constant Ki in data set [1] (setting [3]) came out at 0.03 nM.
For `C=Cc1cncc(OC[C@@H]2CCN2)c1` [Example 22, 5-Vinyl-3-((2S)-Azetidinylmethyloxy)lpyridine dihydrochloride], the Ki in data set [1] (setting [3]) was found to be 0.97 nM.
With `O=C(c1ccc([N+](=O)[O-])cc1)N1CC[C@@H]1COc1ccc(F)nc1` [Example 4-NO2C6H4CO], in data set [2], the “F* (%) efficiency of conversion” value was determined as 27.1%, the “AUD0.” value was determined as 18.76 ng·h/mL, the maximum concentration (Cmax) was 6.01 ng/mL and the time of peak concentration (Tmax) came to 48 min. For the same compound, the “t½” value in data set [2] came to 1.9 h.
